Experimental data from ChEMBL document CHEMBL1147888, “Convenient one pot synthesis and antimicrobial evaluation of some new Mannich bases carrying 4-methylthiobenzyl moiety” (2007).
Converted amounts (≈) assume the structure as drawn.

Key:
Type in all cases: functional
Aspergillus flavus [1] = assay: Antifungal activity against Aspergillus flavus NICM524 at 10 ug/ml after 3 to 4 days by serial dilution method; conditions: read-out: IZ
Pseudomonas aeruginosa [2] = assay: Antibacterial activity against Pseudomonas aeruginosa ATCC 27853 at 10 ug/ml after 24 hrs by disc diffusion method; conditions: ATCC 27853, 24 h, read-out: IZ
Klebsiella pneumoniae [3] = assay: Antibacterial activity against Klebsiella pneumoniae after 24 hrs at 10 ug/ml by disc diffusion method; conditions: read-out: IZ
Escherichia coli [4] = assay: Antibacterial activity against Escherichia coli ATCC 25922 after 24 hrs at 10 ug/ml by disc diffusion method; conditions: ATCC 25922, 24 h, read-out: IZ
Escherichia coli [5] = assay: Antibacterial activity against Escherichia coli ATCC 25922 after 24 hrs by disc diffusion method; conditions: ATCC 25922, 24 h
Candida albicans [6] = assay: Antifungal activity against Candida albicans NICM3100 after 3 to 4 days by serial dilution method
Aspergillus flavus [7] = assay: Antifungal activity against Aspergillus flavus NICM524 after 3 to 4 days by serial dilution method
Klebsiella pneumoniae [8] = assay: Antibacterial activity against Klebsiella pneumoniae after 24 hrs by disc diffusion method
Talaromyces marneffei [9] = assay: Antifungal activity against Penicillium marneffei at 10 ug/ml after 3 to 4 days by serial dilution method; conditions: read-out: IZ
Staphylococcus aureus [10] = assay: Antibacterial activity against Staphylococcus aureus ATCC 25923 after 24 hrs by disc diffusion method; conditions: ATCC 25923, 24 h
Aspergillus fumigatus [11] = assay: Antifungal activity against Aspergillus fumigatus NICM902 after 3 to 4 days by serial dilution method
Staphylococcus aureus [12] = assay: Antibacterial activity against Staphylococcus aureus ATCC 25923 at 10 ug/ml after 24 hrs by disc diffusion method; conditions: ATCC 25923, 24 h, read-out: IZ
Pseudomonas aeruginosa [13] = assay: Antibacterial activity against Pseudomonas aeruginosa ATCC 27853 after 24 hrs by disc diffusion method; conditions: ATCC 27853, 24 h
Aspergillus fumigatus [14] = assay: Antifungal activity against Aspergillus fumigatus NICM902 at 10 ug/ml after 3 to 4 days by serial dilution method; conditions: read-out: IZ
Candida albicans [15] = assay: Antifungal activity against Candida albicans NICM3100 at 10 ug/ml after 3 to 4 days by serial dilution method; conditions: read-out: IZ
Talaromyces marneffei [16] = assay: Antifungal activity against Penicillium marneffei after 3 to 4 days by serial dilution method

Molecule `CSc1ccc(/C=N/n2c(Cc3ccc(SC)cc3)nn(CN3CCN(C)CC3)c2=S)cc1` has a zone of inhibition at 10 µg/mL (Aspergillus flavus [1]) of 12 mm, a zone of inhibition at 10 µg/mL (Pseudomonas aeruginosa [2]) of 12 mm and a zone of inhibition at 10 µg/mL (Klebsiella pneumoniae [3]) of 10 mm. It also gave a zone of inhibition at 10 µg/mL (Escherichia coli [4]) of 10 mm, an MIC (Escherichia coli [5]) of 25 µg/mL (≈ 50.1 µM) and an MIC (Candida albicans [6]) of 12.5 µg/mL (≈ 25.1 µM). It also gave an MIC (Aspergillus flavus [7]) of 25 µg/mL (≈ 50.1 µM), an MIC (Klebsiella pneumoniae [8]) of 12.5 µg/mL (≈ 25.1 µM) and a zone of inhibition at 10 µg/mL (Talaromyces marneffei [9]) of 12 mm. It also gave an MIC (Staphylococcus aureus [10]) of 25 µg/mL (≈ 50.1 µM), an MIC (Aspergillus fumigatus [11]) of 12.5 µg/mL (≈ 25.1 µM) and a zone of inhibition at 10 µg/mL (Staphylococcus aureus [12]) of 12 mm. For the same molecule, the MIC (Pseudomonas aeruginosa [13]) was 12.5 µg/mL (≈ 25.1 µM), the zone of inhibition at 10 µg/mL (Aspergillus fumigatus [14]) was 12 mm and the zone of inhibition at 10 µg/mL (Candida albicans [15]) was 10 mm. The MIC (Talaromyces marneffei [16]) was 12.5 µg/mL (≈ 25.1 µM).
Molecule `CSc1ccc(Cc2nn(CN3CCOCC3)c(=S)n2/N=C/c2ccc(C)cc2)cc1` has a zone of inhibition at 10 µg/mL (Aspergillus flavus [1]) of 12 mm, a zone of inhibition at 10 µg/mL (Pseudomonas aeruginosa [2]) of 12 mm and a zone of inhibition at 10 µg/mL (Klebsiella pneumoniae [3]) of 10 mm. It also gave a zone of inhibition at 10 µg/mL (Escherichia coli [4]) of 10 mm, an MIC (Escherichia coli [5]) of 25 µg/mL (≈ 55.1 µM) and an MIC (Candida albicans [6]) of 12.5 µg/mL (≈ 27.6 µM). For the same molecule, the MIC (Aspergillus flavus [7]) was 25 µg/mL (≈ 55.1 µM), the MIC (Klebsiella pneumoniae [8]) was 12.5 µg/mL (≈ 27.6 µM) and the zone of inhibition at 10 µg/mL (Talaromyces marneffei [9]) was 10 mm. The MIC (Staphylococcus aureus [10]) was 25 µg/mL (≈ 55.1 µM), the MIC (Aspergillus fumigatus [11]) was 12.5 µg/mL (≈ 27.6 µM) and the zone of inhibition at 10 µg/mL (Staphylococcus aureus [12]) was 10 mm. For the same molecule, the MIC (Pseudomonas aeruginosa [13]) was 12.5 µg/mL (≈ 27.6 µM), the zone of inhibition at 10 µg/mL (Aspergillus fumigatus [14]) was 10 mm and the zone of inhibition at 10 µg/mL (Candida albicans [15]) was 12 mm. For the same molecule, the MIC (Talaromyces marneffei [16]) was 12.5 µg/mL (≈ 27.6 µM).
With `CSc1ccc(Cc2nn(CN3CCN(C)CC3)c(=S)n2/N=C/c2ccc3c(c2)OCO3)cc1` the zone of inhibition at 10 µg/mL (Aspergillus flavus [1]) was 10 mm, the zone of inhibition at 10 µg/mL (Pseudomonas aeruginosa [2]) was 12 mm and the zone of inhibition at 10 µg/mL (Klebsiella pneumoniae [3]) was 10 mm. It also gave a zone of inhibition at 10 µg/mL (Escherichia coli [4]) of 12 mm, an MIC (Escherichia coli [5]) of 25 µg/mL (≈ 50.3 µM) and an MIC (Candida albicans [6]) of 12.5 µg/mL (≈ 25.2 µM). The MIC (Aspergillus flavus [7]) was 25 µg/mL (≈ 50.3 µM), the MIC (Klebsiella pneumoniae [8]) was 12.5 µg/mL (≈ 25.2 µM) and the zone of inhibition at 10 µg/mL (Talaromyces marneffei [9]) was 10 mm. For the same molecule, the MIC (Staphylococcus aureus [10]) was 25 µg/mL (≈ 50.3 µM), the MIC (Aspergillus fumigatus [11]) was 12.5 µg/mL (≈ 25.2 µM) and the zone of inhibition at 10 µg/mL (Staphylococcus aureus [12]) was 10 mm. It also gave an MIC (Pseudomonas aeruginosa [13]) of 12.5 µg/mL (≈ 25.2 µM), a zone of inhibition at 10 µg/mL (Aspergillus fumigatus [14]) of 10 mm and a zone of inhibition at 10 µg/mL (Candida albicans [15]) of 10 mm. The MIC (Talaromyces marneffei [16]) was 12.5 µg/mL (≈ 25.2 µM).
Molecule `CSc1ccc(Cc2nn(CN3CCOCC3)c(=S)n2/N=C/c2ccc(Cl)cc2Cl)cc1` has a zone of inhibition at 10 µg/mL (Aspergillus flavus [1]) of 10 mm, a zone of inhibition at 10 µg/mL (Pseudomonas aeruginosa [2]) of 23 mm and a zone of inhibition at 10 µg/mL (Klebsiella pneumoniae [3]) of 18 mm. The zone of inhibition at 10 µg/mL (Escherichia coli [4]) was 17 mm, the MIC (Escherichia coli [5]) was 12.5 µg/mL (≈ 24.6 µM) and the MIC (Candida albicans [6]) was 12.5 µg/mL (≈ 24.6 µM). It also gave an MIC (Aspergillus flavus [7]) of 25 µg/mL (≈ 49.2 µM), an MIC (Klebsiella pneumoniae [8]) of 6 µg/mL (≈ 11.8 µM) and a zone of inhibition at 10 µg/mL (Talaromyces marneffei [9]) of 10 mm. The MIC (Staphylococcus aureus [10]) was 12.5 µg/mL (≈ 24.6 µM), the MIC (Aspergillus fumigatus [11]) was 12.5 µg/mL (≈ 24.6 µM) and the zone of inhibition at 10 µg/mL (Staphylococcus aureus [12]) was 18 mm. The MIC (Pseudomonas aeruginosa [13]) was 6 µg/mL (≈ 11.8 µM), the zone of inhibition at 10 µg/mL (Aspergillus fumigatus [14]) was 12 mm and the zone of inhibition at 10 µg/mL (Candida albicans [15]) was 10 mm. For the same molecule, the MIC (Talaromyces marneffei [16]) was 12.5 µg/mL (≈ 24.6 µM).
In the case of `CSc1ccc(/C=N/n2c(Cc3ccc(SC)cc3)nn(CN3CCOCC3)c2=S)cc1`, the zone of inhibition at 10 µg/mL (Aspergillus flavus [1]) is reported as 10 mm, the zone of inhibition at 10 µg/mL (Pseudomonas aeruginosa [2]) is reported as 12 mm and the zone of inhibition at 10 µg/mL (Klebsiella pneumoniae [3]) is reported as 12 mm. It also gave a zone of inhibition at 10 µg/mL (Escherichia coli [4]) of 12 mm, an MIC (Escherichia coli [5]) of 25 µg/mL (≈ 51.5 µM) and an MIC (Candida albicans [6]) of 12.5 µg/mL (≈ 25.7 µM). The MIC (Aspergillus flavus [7]) was 25 µg/mL (≈ 51.5 µM), the MIC (Klebsiella pneumoniae [8]) was 12.5 µg/mL (≈ 25.7 µM) and the zone of inhibition at 10 µg/mL (Talaromyces marneffei [9]) was 12 mm. For the same molecule, the MIC (Staphylococcus aureus [10]) was 25 µg/mL (≈ 51.5 µM), the MIC (Aspergillus fumigatus [11]) was 12.5 µg/mL (≈ 25.7 µM) and the zone of inhibition at 10 µg/mL (Staphylococcus aureus [12]) was 10 mm. For the same molecule, the MIC (Pseudomonas aeruginosa [13]) was 12.5 µg/mL (≈ 25.7 µM), the zone of inhibition at 10 µg/mL (Aspergillus fumigatus [14]) was 12 mm and the zone of inhibition at 10 µg/mL (Candida albicans [15]) was 10 mm. The MIC (Talaromyces marneffei [16]) was 12.5 µg/mL (≈ 25.7 µM).
Molecule `COc1ccc(/C=N/n2c(Cc3ccc(SC)cc3)nn(CN3CCOCC3)c2=S)cc1` has a zone of inhibition at 10 µg/mL (Aspergillus flavus [1]) of 12 mm, a zone of inhibition at 10 µg/mL (Pseudomonas aeruginosa [2]) of 12 mm and a zone of inhibition at 10 µg/mL (Klebsiella pneumoniae [3]) of 10 mm. It also gave a zone of inhibition at 10 µg/mL (Escherichia coli [4]) of 10 mm, an MIC (Escherichia coli [5]) of 25 µg/mL (≈ 53.2 µM) and an MIC (Candida albicans [6]) of 12.5 µg/mL (≈ 26.6 µM). For the same molecule, the MIC (Aspergillus flavus [7]) was 25 µg/mL (≈ 53.2 µM), the MIC (Klebsiella pneumoniae [8]) was 12.5 µg/mL (≈ 26.6 µM) and the zone of inhibition at 10 µg/mL (Talaromyces marneffei [9]) was 12 mm. It also gave an MIC (Staphylococcus aureus [10]) of 25 µg/mL (≈ 53.2 µM), an MIC (Aspergillus fumigatus [11]) of 12.5 µg/mL (≈ 26.6 µM) and a zone of inhibition at 10 µg/mL (Staphylococcus aureus [12]) of 12 mm. The MIC (Pseudomonas aeruginosa [13]) was 12.5 µg/mL (≈ 26.6 µM), the zone of inhibition at 10 µg/mL (Aspergillus fumigatus [14]) was 12 mm and the zone of inhibition at 10 µg/mL (Candida albicans [15]) was 10 mm. For the same molecule, the MIC (Talaromyces marneffei [16]) was 12.5 µg/mL (≈ 26.6 µM).
With `O=C(O)c1cn(C2CC2)c2cc(N3CCNCC3)c(F)cc2c1=O` [CIPROFLOXACIN] the zone of inhibition at 10 µg/mL (Aspergillus flavus [1]) was 18 mm, the zone of inhibition at 10 µg/mL (Pseudomonas aeruginosa [2]) was 25 mm and the zone of inhibition at 10 µg/mL (Klebsiella pneumoniae [3]) was 20 mm. It also gave a zone of inhibition at 10 µg/mL (Escherichia coli [4]) of 18 mm, an MIC (Escherichia coli [5]) of 12.5 µg/mL (≈ 37.7 µM) and an MIC (Klebsiella pneumoniae [8]) of 6 µg/mL (≈ 18.1 µM). The zone of inhibition at 10 µg/mL (Talaromyces marneffei [9]) was 20 mm, the MIC (Staphylococcus aureus [10]) was 12.5 µg/mL (≈ 37.7 µM) and the zone of inhibition at 10 µg/mL (Staphylococcus aureus [12]) was 19 mm. The MIC (Pseudomonas aeruginosa [13]) was 6 µg/mL (≈ 18.1 µM), the zone of inhibition at 10 µg/mL (Aspergillus fumigatus [14]) was 22 mm and the zone of inhibition at 10 µg/mL (Candida albicans [15]) was 20 mm.
Molecule `CSc1ccc(Cc2nn(CN3CCN(C)CC3)c(=S)n2/N=C/c2ccc(Cl)cc2Cl)cc1` has a zone of inhibition at 10 µg/mL (Aspergillus flavus [1]) of 18 mm, a zone of inhibition at 10 µg/mL (Pseudomonas aeruginosa [2]) of 25 mm and a zone of inhibition at 10 µg/mL (Klebsiella pneumoniae [3]) of 20 mm. For the same molecule, the zone of inhibition at 10 µg/mL (Escherichia coli [4]) was 18 mm, the MIC (Escherichia coli [5]) was 12.5 µg/mL (≈ 24 µM) and the MIC (Candida albicans [6]) was 6 µg/mL (≈ 11.5 µM). The MIC (Aspergillus flavus [7]) was 12.5 µg/mL (≈ 24 µM), the MIC (Klebsiella pneumoniae [8]) was 6 µg/mL (≈ 11.5 µM) and the zone of inhibition at 10 µg/mL (Talaromyces marneffei [9]) was 18 mm. It also gave an MIC (Staphylococcus aureus [10]) of 12.5 µg/mL (≈ 24 µM), an MIC (Aspergillus fumigatus [11]) of 6 µg/mL (≈ 11.5 µM) and a zone of inhibition at 10 µg/mL (Staphylococcus aureus [12]) of 19 mm. For the same molecule, the MIC (Pseudomonas aeruginosa [13]) was 6 µg/mL (≈ 11.5 µM), the zone of inhibition at 10 µg/mL (Aspergillus fumigatus [14]) was 22 mm and the zone of inhibition at 10 µg/mL (Candida albicans [15]) was 20 mm. The MIC (Talaromyces marneffei [16]) was 6 µg/mL (≈ 11.5 µM).
